Test results taken from paper PMC9229843, “Cancer-Related Somatic Mutations in Transmembrane Helices Alter Adenosine A1 Receptor Pharmacology” (Molecules, 2022).
Changes are numbered by the printed parent chain. “Also recorded” adds a separate entry of the source.

Experiments:
hA1AR S246T^6.47 = target: T1, hA1AR S246T^6.47 (Homo sapiens, UniProt P30542, S246T); settings: ratio over basal activity of wild type hA1AR; yeast; 7 mM 3-AT
T1 sequence (P30542 1-326 S246T): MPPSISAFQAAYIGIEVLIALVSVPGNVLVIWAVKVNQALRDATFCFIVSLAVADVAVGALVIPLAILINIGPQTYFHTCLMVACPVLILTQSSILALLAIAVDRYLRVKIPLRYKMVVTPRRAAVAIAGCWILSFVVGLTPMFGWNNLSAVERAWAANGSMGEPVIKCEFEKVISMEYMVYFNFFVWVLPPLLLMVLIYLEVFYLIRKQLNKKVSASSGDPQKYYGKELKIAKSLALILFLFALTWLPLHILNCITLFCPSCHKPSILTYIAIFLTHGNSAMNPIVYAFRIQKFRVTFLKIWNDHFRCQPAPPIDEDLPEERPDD
Method: The plasmids, pDT-PGK_hA1AR, containing either wild type or mutated hA1AR were transformed into a MMY24 S. cerevisiae strain following the lithium acetate procedure.
In order to characterize the mutant hA1ARs, liquid growth assays in 96-well plates were performed to obtain concentration–growth curves as previously described. […] The overnight cultures were then diluted to 40,000 cells/mL (OD600 ≈ 0.02) in a selective medium without uracil, leucine, and histidine (YNB-ULH). For the determination of constitutive activity, 50 μL of yeast cells and 150 μL of YNB-ULH medium containing different concentrations of 3-AT and 0.8 IU/mL ADA were then added to each well. […] After incubation at 30 °C for 35 h in a Genios plate reader (TECAN, Zürich, Switzerland) with shaking for 1 min at 300 rpm every 10 min, the optical density was measured at a wavelength of 595 nm, which represented the level of yeast cell growth.
(§1) All experimental data were analyzed by GraphPad Prism 7.0 or 8.0 (GraphPad Software Inc., San Diego, CA, USA). Data from yeast liquid growth and [^35S]GTPγS binding assays were analyzed by non-linear regression using “log (agonist) vs. response (three parameters)” or “log (inhibitor) vs. response (three parameters)” to obtain potency (EC50), inhibitory potency (IC50), and efficacy (Emax or Imax) values. […]

A1AR P86F^3.31 = test system: A1AR P86F^3.31; set-up: method as in PMID 9920910; settings: result in words; cited from earlier work
wild type hA1AR = target: T2, wild type hA1AR (Homo sapiens, UniProt P30542); assay: [3H]DPCPX radioligand displacement assay, CHO membranes; assay type: binding; settings: fraction of high-affinity state; two-site model
T2 sequence (P30542 1-326): T1 sequence (P30542 1-326 S246T) with T246S
Method: Transient transfection of CHO cells with wild type or mutated hA1AR plasmid constructs was performed using a polyethylenimine (PEI) method. Cells were seeded in 10-cm culture dishes to achieve 50–60% confluency 24 h prior to transfection. On the day of transfection, cells were transfected with a PEI: DNA ratio of 3:1 and a plasmid DNA amount of 10 μg/dish. Moreover, 24 h post-transfection, the medium was refreshed, and 48 h after transfection, cells were collected and membranes were prepared as previously described. Membranes were aliquoted in 250 or 100 μL and stored at −80 °C. Membrane protein concentrations were determined using the BCA method.
The displacement assays were performed as described previously. […] After the addition of 25 µL per well of the Microscint scintillation cocktail (PerkinElmer, Groningen, The Netherlands), the filter-bound radioactivity was measured by scintillation spectrometry in a Microbeta2® 2450 microplate counter (PerkinElmer).
as §1

hA1AR S267I^7.32 = target: T3, hA1AR S267I^7.32 (Homo sapiens, UniProt P30542, S267I); assay: yeast liquid growth assay; assay type: cell-based; settings: result in words
T3 construct: expressed in transfected cells; host or cells: S. cerevisiae MMY24
T3 sequence (P30542 1-326 S267I): T1 sequence (P30542 1-326 S246T) with T246S, S267I

hA1AR T257P^6.58 = target: T4, hA1AR T257P^6.58 (Homo sapiens, UniProt P30542, T257P); assay: yeast liquid growth assay; assay type: cell-based; settings: result in words
T4 construct: expressed in transfected cells; host or cells: S. cerevisiae MMY24
T4 sequence (P30542 1-326 T257P): T1 sequence (P30542 1-326 S246T) with T246S, T257P

For `OC[C@H]1O[C@@H](n2cnc3c(NC4CCCC4)ncnc32)[C@H](O)[C@@H]1O` [CPA, N^6-cyclopentyladenosine], the Emax (hA1AR S246T^6.47) is listed as 4.81 ± 0.26, the CPA binding (A1AR P86F^3.31) is listed as “abolished” and the “Fraction (High)” value (wild type hA1AR) is listed as 0.15 ± 0.03. The agonist-induced receptor activation (hA1AR S267I^7.32) was “could not be activated; also recorded: complete loss of activation” and the agonist-induced receptor activation (hA1AR T257P^6.58) was “could not be activated”.
